Assays:
[1] = target: Sodium-dependent dopamine transporter (Homo sapiens) (UniProt Q01959); assay: dopamine transporter Eurofins-Cerep binding assay; conditions: filed as antagonist, Compound concentration 10.0 uM
Rattus norvegicus [2] = species: Rattus norvegicus; assay: alpha 1 (non-selective) Eurofins-Cerep binding assay; type: protein assay; parameters: ligand concentration 0.25 nM; conditions: filed as antagonist, Compound concentration 10.0 uM
[3] = target: Mu-type opioid receptor (Homo sapiens) (UniProt P35372); assay: mu (MOP) Eurofins-Cerep binding assay; parameters: ligand concentration 0.5 nM; conditions: filed as agonist, Compound concentration 10.0 uM
Chain of Mu-type opioid receptor (Homo sapiens) (P35372 whole entry): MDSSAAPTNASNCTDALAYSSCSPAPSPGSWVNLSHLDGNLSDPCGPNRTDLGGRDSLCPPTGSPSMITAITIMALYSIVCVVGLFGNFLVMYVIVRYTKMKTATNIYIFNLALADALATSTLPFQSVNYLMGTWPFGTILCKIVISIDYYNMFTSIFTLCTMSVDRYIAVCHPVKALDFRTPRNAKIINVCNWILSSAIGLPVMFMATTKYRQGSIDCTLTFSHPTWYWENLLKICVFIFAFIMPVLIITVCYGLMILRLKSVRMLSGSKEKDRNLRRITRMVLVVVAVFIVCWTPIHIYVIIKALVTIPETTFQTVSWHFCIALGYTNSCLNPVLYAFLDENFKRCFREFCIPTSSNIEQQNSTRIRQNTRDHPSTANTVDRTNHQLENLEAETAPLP

[4] = target: Nociceptin receptor (Homo sapiens) (UniProt P41146); assay: NOP (ORL1) Eurofins-Cerep binding assay; parameters: ligand concentration 0.06 nM; conditions: filed as agonist, Compound concentration 10.0 uM
Rattus norvegicus [5] = species: Rattus norvegicus; assay: SKCa channel Eurofins-Cerep binding assay; type: protein assay; parameters: ligand concentration 0.007 nM; conditions: filed as antagonist, Compound concentration 10.0 uM
[6] = target: Muscarinic acetylcholine receptor M1 (Homo sapiens) (UniProt P11229); assay: M1 Eurofins-Cerep binding assay; parameters: ligand concentration 2 nM; conditions: filed as antagonist, Compound concentration 10.0 uM
Chain of Muscarinic acetylcholine receptor M1 (Homo sapiens) (P11229 whole entry): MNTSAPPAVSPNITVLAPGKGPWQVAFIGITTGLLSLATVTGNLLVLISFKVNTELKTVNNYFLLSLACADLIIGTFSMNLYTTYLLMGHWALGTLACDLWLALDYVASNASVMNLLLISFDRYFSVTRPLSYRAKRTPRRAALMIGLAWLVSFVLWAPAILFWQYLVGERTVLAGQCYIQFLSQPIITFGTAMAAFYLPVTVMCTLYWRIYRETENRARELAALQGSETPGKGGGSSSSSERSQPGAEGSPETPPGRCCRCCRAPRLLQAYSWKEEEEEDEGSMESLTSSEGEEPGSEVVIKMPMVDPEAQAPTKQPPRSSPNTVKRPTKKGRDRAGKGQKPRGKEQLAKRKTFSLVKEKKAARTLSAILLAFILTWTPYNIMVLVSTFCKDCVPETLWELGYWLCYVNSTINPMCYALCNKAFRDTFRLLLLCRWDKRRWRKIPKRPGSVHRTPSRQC

[7] = target: Vasoactive intestinal polypeptide receptor 1 (Homo sapiens) (UniProt P32241); assay: VPAC1 (VIP1) Eurofins-Cerep binding assay; parameters: ligand concentration 0.04 nM; conditions: filed as agonist, Compound concentration 10.0 uM
Chain of Vasoactive intestinal polypeptide receptor 1 (Homo sapiens) (P32241 whole entry): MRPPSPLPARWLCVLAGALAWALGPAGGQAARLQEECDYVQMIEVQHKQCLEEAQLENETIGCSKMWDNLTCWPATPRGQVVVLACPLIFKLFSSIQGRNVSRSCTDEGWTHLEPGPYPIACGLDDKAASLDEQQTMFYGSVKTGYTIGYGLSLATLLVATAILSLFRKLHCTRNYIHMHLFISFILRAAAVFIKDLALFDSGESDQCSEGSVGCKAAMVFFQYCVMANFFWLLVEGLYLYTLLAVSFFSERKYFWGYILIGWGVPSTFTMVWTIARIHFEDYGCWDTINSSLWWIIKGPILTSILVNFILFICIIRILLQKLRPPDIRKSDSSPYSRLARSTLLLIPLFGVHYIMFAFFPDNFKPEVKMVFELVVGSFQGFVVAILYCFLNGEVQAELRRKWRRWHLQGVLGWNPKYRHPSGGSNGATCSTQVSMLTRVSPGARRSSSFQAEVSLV

[8] = target: 5-hydroxytryptamine receptor 7 (Homo sapiens) (UniProt P34969); assay: 5-HT7 Eurofins-Cerep binding assay; parameters: ligand concentration 4 nM; conditions: filed as agonist, Compound concentration 10.0 uM
[9] = target: Sodium-dependent noradrenaline transporter (Homo sapiens) (UniProt P23975); assay: norepinephrine transporter Eurofins-Cerep binding assay; parameters: ligand concentration 1 nM; conditions: filed as antagonist, Compound concentration 10.0 uM
Mus musculus = species: Mus musculus; assay: sst (non-selective) Eurofins-Cerep binding assay; type: protein assay; parameters: ligand concentration 0.05 nM; conditions: filed as agonist, Compound concentration 10.0 uM
[10] = target: C-C chemokine receptor type 1 (Homo sapiens) (UniProt P32246); assay: CCR1 Eurofins-Cerep binding assay; parameters: ligand concentration 0.01 nM; conditions: filed as agonist, Compound concentration 10.0 uM
[11] = target: Adenosine receptor A3 (Homo sapiens) (UniProt P0DMS8); assay: A3 Eurofins-Cerep binding assay; parameters: ligand concentration 0.15 nM; conditions: filed as agonist, Compound concentration 10.0 uM
Chain of Adenosine receptor A3 (Homo sapiens) (P0DMS8 whole entry): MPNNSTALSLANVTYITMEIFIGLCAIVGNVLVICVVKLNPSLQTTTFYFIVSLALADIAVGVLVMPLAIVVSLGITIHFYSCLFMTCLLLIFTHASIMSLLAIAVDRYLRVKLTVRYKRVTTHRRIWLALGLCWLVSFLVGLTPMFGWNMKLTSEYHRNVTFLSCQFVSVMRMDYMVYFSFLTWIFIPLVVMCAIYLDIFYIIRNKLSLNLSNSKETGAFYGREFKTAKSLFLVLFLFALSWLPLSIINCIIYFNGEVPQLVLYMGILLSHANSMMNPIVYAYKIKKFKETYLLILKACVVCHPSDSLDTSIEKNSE

[12] = target: D(2) dopamine receptor (Homo sapiens) (UniProt P14416); assay: D2S (h) Eurofins-Cerep binding assay; parameters: ligand concentration 0.3 nM; conditions: filed as antagonist, Compound concentration 10.0 uM
[13] = target: Delta-type opioid receptor (Homo sapiens) (UniProt P41143); assay: delta (DOP) Eurofins-Cerep binding assay; parameters: ligand concentration 0.5 nM; conditions: filed as agonist, Compound concentration 10.0 uM
Chain of Delta-type opioid receptor (Homo sapiens) (P41143 whole entry): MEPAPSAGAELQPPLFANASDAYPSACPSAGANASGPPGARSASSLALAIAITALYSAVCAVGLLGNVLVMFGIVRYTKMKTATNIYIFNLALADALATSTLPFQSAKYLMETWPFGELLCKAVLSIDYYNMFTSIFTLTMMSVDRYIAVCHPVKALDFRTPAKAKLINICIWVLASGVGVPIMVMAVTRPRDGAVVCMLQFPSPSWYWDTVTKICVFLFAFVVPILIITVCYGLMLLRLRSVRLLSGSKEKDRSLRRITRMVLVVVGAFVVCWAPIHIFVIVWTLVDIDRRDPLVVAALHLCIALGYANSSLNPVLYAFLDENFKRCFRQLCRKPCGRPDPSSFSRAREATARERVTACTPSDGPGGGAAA

[14] = target: cGMP-specific 3',5'-cyclic phosphodiesterase (Homo sapiens, UniProt O76074); assay: IC50 of hPDE5A3 in the PDE screen at 1.0 µM
[15] = target: 5-hydroxytryptamine receptor 5A (Homo sapiens) (UniProt P47898); assay: 5-HT5a Eurofins-Cerep binding assay; parameters: ligand concentration 1.5 nM; conditions: filed as agonist, Compound concentration 10.0 uM
Chain of 5-hydroxytryptamine receptor 5A (Homo sapiens) (P47898 whole entry): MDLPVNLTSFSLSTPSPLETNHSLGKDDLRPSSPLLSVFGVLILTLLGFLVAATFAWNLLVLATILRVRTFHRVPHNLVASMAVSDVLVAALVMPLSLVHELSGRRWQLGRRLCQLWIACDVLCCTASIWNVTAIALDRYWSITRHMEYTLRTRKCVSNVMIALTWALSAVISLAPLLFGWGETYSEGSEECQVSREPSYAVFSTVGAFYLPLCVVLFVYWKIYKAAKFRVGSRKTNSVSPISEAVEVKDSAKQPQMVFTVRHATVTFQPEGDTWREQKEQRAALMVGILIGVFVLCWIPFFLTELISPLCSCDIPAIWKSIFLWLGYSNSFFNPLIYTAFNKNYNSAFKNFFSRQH

[16] = target: High affinity 3',5'-cyclic-AMP phosphodiesterase 7A (Homo sapiens, UniProt Q13946); assay: IC50 of hPDE7A1 in the PDE screen at 1.0 µM
Chain of High affinity 3',5'-cyclic-AMP phosphodiesterase 7A (Q13946 whole entry): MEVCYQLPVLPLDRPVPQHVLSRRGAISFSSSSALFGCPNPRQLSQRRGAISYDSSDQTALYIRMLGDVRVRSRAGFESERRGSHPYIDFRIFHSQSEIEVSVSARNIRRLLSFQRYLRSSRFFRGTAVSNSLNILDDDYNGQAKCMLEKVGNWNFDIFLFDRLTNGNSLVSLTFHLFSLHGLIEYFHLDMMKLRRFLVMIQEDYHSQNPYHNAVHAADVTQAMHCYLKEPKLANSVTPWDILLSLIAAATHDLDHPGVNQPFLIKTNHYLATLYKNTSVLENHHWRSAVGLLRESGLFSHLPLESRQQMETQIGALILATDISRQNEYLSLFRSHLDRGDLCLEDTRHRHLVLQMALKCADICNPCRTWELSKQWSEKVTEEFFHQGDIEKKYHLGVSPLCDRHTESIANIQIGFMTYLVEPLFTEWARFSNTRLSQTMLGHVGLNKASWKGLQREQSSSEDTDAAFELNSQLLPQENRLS

[17] = target: Muscarinic acetylcholine receptor M3 (Homo sapiens) (UniProt P20309); assay: M3 Eurofins-Cerep binding assay; parameters: ligand concentration 0.2 nM; conditions: filed as antagonist, Compound concentration 10.0 uM
[18] = target: Melatonin receptor type 1A (Homo sapiens) (UniProt P48039); assay: MT1 (ML1A) Eurofins-Cerep binding assay; parameters: ligand concentration 0.01 nM; conditions: filed as agonist, Compound concentration 10.0 uM
[19] = target: Histamine H2 receptor (Homo sapiens) (UniProt P25021); assay: H2 Eurofins-Cerep binding assay; parameters: ligand concentration 0.075 nM; conditions: filed as antagonist, Compound concentration 10.0 uM
Chain of Histamine H2 receptor (Homo sapiens) (P25021 whole entry): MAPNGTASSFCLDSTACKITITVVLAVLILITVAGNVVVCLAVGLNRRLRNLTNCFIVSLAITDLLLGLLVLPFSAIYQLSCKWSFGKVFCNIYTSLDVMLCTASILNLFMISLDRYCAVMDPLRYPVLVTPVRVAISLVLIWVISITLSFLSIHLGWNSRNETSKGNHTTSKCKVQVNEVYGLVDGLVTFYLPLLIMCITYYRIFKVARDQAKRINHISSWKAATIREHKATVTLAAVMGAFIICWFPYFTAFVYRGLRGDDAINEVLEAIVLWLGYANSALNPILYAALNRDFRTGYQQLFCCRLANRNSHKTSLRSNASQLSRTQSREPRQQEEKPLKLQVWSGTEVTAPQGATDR

[20] = target: cGMP-dependent 3',5'-cyclic phosphodiesterase (Rattus norvegicus) (UniProt Q01062); assay: Target occupancy in striatum ( p.o.dose, 1 h); type: organism-based
[21] = target: Muscarinic acetylcholine receptor M2 (Homo sapiens) (UniProt P08172); assay: M2 Eurofins-Cerep binding assay; parameters: ligand concentration 2 nM; conditions: filed as antagonist, Compound concentration 10.0 uM
Chain of Muscarinic acetylcholine receptor M2 (Homo sapiens) (P08172 whole entry): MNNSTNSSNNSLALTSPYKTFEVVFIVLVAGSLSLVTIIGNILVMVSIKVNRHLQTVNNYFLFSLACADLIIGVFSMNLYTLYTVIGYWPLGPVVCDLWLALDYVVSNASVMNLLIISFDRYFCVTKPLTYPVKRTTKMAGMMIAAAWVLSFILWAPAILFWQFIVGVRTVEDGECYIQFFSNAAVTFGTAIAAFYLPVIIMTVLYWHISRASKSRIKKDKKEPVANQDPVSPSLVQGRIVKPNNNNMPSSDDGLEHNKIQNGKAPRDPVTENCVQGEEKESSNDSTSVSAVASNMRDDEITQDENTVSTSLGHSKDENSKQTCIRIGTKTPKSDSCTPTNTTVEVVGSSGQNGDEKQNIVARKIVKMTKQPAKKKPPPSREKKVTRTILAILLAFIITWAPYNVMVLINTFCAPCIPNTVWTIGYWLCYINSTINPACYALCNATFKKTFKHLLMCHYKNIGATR

[22] = target: Galanin receptor type 2 (Homo sapiens) (UniProt O43603); assay: GAL2 Eurofins-Cerep binding assay; parameters: ligand concentration 0.05 nM; conditions: filed as agonist, Compound concentration 10.0 uM
Rattus norvegicus [23] = species: Rattus norvegicus; assay: Cl-channel (GABA-gated) Eurofins-Cerep binding assay; parameters: ligand concentration 3 nM; conditions: filed as antagonist, Compound concentration 10.0 uM
[24] = target: Neuropeptide Y receptor type 1 (Homo sapiens) (UniProt P25929); assay: Y1 Eurofins-Cerep binding assay; parameters: ligand concentration 0.025 nM; conditions: filed as agonist, Compound concentration 10.0 uM
[25] = target: Histamine H1 receptor (Homo sapiens) (UniProt P35367); assay: H1 Eurofins-Cerep binding assay; parameters: ligand concentration 1 nM; conditions: filed as antagonist, Compound concentration 10.0 uM
[26] = target: Adenosine receptor A2a (Homo sapiens) (UniProt P29274); assay: A2A Eurofins-Cerep binding assay; parameters: ligand concentration 6 nM; conditions: filed as agonist, Compound concentration 10.0 uM
[27] = target: 5-hydroxytryptamine receptor 2A (Homo sapiens) (UniProt P28223); assay: 5-HT2A Eurofins-Cerep binding assay; parameters: ligand concentration 0.5 nM; conditions: filed as antagonist, Compound concentration 10.0 uM
Chain of 5-hydroxytryptamine receptor 2A (Homo sapiens) (P28223 whole entry): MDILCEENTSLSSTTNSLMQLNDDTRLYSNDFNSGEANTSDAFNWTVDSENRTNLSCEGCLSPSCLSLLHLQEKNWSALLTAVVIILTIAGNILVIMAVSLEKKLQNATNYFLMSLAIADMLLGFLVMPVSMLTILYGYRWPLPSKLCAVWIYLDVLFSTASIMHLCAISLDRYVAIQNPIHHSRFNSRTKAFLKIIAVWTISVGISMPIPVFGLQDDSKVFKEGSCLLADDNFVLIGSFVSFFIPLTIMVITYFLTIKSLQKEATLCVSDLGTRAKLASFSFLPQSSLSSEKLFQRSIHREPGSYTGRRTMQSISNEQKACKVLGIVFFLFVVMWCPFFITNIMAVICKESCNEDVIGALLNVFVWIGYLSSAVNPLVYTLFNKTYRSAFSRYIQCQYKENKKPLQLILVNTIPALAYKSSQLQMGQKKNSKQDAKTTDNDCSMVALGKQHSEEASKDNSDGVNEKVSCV

[28] = target: Cholecystokinin receptor type A (Homo sapiens) (UniProt P32238); assay: CCK1 (CCKA) Eurofins-Cerep binding assay; parameters: ligand concentration 0.08 nM; conditions: filed as agonist, Compound concentration 10.0 uM
Phosphodiesterase 3 = Phosphodiesterase 3 (Homo sapiens, UniProt Q14432+Q13370); assay: IC50 of hPDE3 in the PDE screen at 1.0 µM; type: protein assay
[29] = target: C-X-C chemokine receptor type 2 (Homo sapiens) (UniProt P25025); assay: CXCR2 (IL-8B) Eurofins-Cerep binding assay; conditions: filed as agonist, Compound concentration 10.0 uM

Chain of Sodium-dependent dopamine transporter (Homo sapiens) (Q01959 whole entry): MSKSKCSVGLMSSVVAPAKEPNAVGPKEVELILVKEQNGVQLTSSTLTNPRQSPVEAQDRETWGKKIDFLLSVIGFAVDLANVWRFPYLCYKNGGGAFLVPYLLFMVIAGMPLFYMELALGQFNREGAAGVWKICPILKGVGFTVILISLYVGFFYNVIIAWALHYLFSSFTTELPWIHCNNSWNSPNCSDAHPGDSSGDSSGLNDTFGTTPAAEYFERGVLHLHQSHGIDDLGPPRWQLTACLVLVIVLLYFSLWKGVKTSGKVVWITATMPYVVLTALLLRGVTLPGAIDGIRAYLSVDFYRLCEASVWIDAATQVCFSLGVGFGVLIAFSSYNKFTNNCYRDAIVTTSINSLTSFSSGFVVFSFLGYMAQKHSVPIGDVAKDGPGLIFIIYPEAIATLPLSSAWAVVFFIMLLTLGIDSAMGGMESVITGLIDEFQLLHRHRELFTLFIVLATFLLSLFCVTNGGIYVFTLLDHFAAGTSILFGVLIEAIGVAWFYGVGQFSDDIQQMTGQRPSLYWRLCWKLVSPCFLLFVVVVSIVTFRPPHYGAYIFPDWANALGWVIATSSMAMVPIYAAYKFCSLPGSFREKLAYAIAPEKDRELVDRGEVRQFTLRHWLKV

Cc1cc(C(=O)N2CC[C@@H](C)[C@H](c3cc(C(F)F)nc4ncnn34)C2)cc(C)n1
residual activity [1]: 108% | residual activity (Rattus norvegicus [2]): 104% | residual activity [3]: 96% | residual activity [4]: 103% | residual activity (Rattus norvegicus [5]): 101% | residual activity [6]: 92.8% | residual activity [7]: 111% | residual activity [8]: 105% | residual activity [9]: 99% | residual activity (Mus musculus): 122% | residual activity [10]: 89.6% | residual activity [11]: 104% | residual activity [12]: 104% | residual activity [13]: 90.2% | IC50 [14]: > 10 µM (not active) | residual activity [15]: 95.3% | IC50 [16]: > 10 µM (not active) | residual activity [17]: 103% | residual activity [18]: 109% | residual activity [19]: 103% | ED50 [20]: 5.3 mg/kg | residual activity [21]: 115% | residual activity [22]: 94% | residual activity (Rattus norvegicus [23]): 102% | residual activity [24]: 108% | residual activity [25]: 106% | residual activity [26]: 55.1% | residual activity [27]: 108% | residual activity [28]: 104% | IC50 (Phosphodiesterase 3): 6.643 µM | Ki (Phosphodiesterase 3): 3.32 µM | residual activity [29]: 109%

Source: ChEMBL document CHEMBL5723585, “Data for DCP probe JNJ-54082730” (2024)
